Reference: US6620588B1, “Method of identifying inhibitors of topoisomerase DNA religation” (priority 2000, dated 2003)
Read-outs that look alike come from different tables or passages of the source.

Experiments:
MCV-TOP = assay: Microtiter plate religation assay for MCV topoisomerase; type: biochemical, molluscum contagiosum virus
EU-TOPO = target: T1, EU-TOPO (Bos taurus, UniProt F1MN93); type: biochemical, mammalian; details: for dependence of EU-TOPO inhibition on the base 3′ of the scissile phosphate: EU TG+P compared with EU TA+P substrate; for IC50: read-out: IC50, inhibition of religation by EU-TOPO
T1 construct: purchased Gibco-BRL
T1 sequence (F1MN93 entry or part of it): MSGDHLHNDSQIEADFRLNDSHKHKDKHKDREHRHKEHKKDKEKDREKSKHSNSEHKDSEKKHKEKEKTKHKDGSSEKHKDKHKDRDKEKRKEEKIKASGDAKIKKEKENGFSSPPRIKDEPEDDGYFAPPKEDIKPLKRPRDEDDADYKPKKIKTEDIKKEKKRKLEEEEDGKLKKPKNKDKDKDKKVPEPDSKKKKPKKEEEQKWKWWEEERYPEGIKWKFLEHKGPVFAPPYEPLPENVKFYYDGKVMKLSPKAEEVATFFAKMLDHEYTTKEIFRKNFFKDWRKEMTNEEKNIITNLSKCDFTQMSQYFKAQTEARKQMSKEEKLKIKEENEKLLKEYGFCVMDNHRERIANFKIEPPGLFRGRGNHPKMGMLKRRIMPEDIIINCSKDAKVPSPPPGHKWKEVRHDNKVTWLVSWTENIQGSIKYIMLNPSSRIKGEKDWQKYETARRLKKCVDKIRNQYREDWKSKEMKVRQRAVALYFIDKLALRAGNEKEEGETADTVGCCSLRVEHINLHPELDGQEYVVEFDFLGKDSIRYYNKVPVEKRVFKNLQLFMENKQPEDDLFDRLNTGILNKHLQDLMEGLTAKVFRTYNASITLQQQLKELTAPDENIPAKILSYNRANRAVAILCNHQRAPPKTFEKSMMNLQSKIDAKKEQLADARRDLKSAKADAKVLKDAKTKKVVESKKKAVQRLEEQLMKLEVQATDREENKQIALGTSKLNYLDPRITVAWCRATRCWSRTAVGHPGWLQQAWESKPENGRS
From the text: The DNA substrate was designed to contain a preferred site for topoisomerase IB action identified in Tetrahymena DNA (A. H. Andersen, E. Gocke, B. J. Bonven, O. F. Nielsen and O. Westergaard. 1985. Topoisomerase I has a strong binding preference for a conserved hexadecameric sequence in the promoter region of the rRNA gene from Tetrahymena pyriformis. Nuc. Acids Res. 13, 1543-1556; B. J. Bonven, E. Bocke and O. Westergaard. 1985. A High Affinity Topoisomerase I Binding Sequence is Clustered at DNase I Hypersensitive Sites in Tetrahymena R-Chromatin. Cell 41, 541-551).
Two orders of addition were compared. Reactions were carried out in which enzyme was preincubated with inhibitor before addition of DNA substrate (FIG. 5, “complete”), which would reveal inhibition at any step in the reaction pathway. Reactions were also carried out in which covalent complexes were formed, then inhibitor added, followed by the religation strand (FIG. 5, “religation”). The latter order of addition tested inhibition of the religation step only.
For EU-TOPO, two different substrate DNAs were tested, containing TA or TG as the bases flanking the scissile phosphate. […] 1998. Molecular Modeling Studies of the DNA-Topoisomerase I Ternary Cleavable Complex with Camptothecin. J. Med. Chem. 41, 2216-2226), so such effects were sought to be discriminated using the microtiter assay.
Standard reaction mixture for assaying EU-TOPO contains 2.5 units EU-TOPO, 2 nM substrate oligonucleotide, 20 mM Tris-Cl (pH 8.0), 72 mM KCl, 5 mM MgCl2, 5 mM DTT and 10% DMSO. EU-TOPO was obtained from Gibco-BRL. The EU-TOPO suicide substrate was based on an optimal sequence found in a Tetrahymena rRNA gene (see FIG. 2B) (A. H. Andersen, E. Gocke, B. J. Bonven, O. F. Nielsen and O. Westergaard. 1985. Topoisomerase I has a strong binding preference for a conserved hexadecameric sequence in the promoter region of the rRNA gene from Tetrahymena pyriformis. Nuc. Acids Res. 13, 1543-1556; B. J. Bonven, E. Bocke and O. Westergaard. 1985. A High Affinity Topoisomerase I Binding Sequence is Clustered at DNase I Hypersensitive Sites in Tetrahymena R-Chromatin. Cell 41, 541-551).
After the topoisomerase reactions were completed, mixtures were adjusted to 20 mM Tris-Cl (pH 8.0), 400 mM NaCl, 10 mM EDTA, and 0.1 mg/ml sonicated salmon sperm DNA in a final volume of 100 μl. 400 mM NaCl was omitted in EU-TOPO assay. The samples were added to avidin-coupled microtiter wells (Boehringer Mannheim), which were then gently agitated at room temperature for 1 hr. Unbound DNA was removed by 3 washes (200 μl, 5 min each) with 30 mM NaOH, 200 mM NaCl, 1 mM EDTA. Bound DNA was then adjusted to 10 mM Tris-Cl (pH 8.0) and 1 mM EDTA. The relative topoisomerase activity was determined using an anti-digoxigenin ELISA. Anti-digoxigenin-peroxidase Fab fragments (0.01 units, Pierce or Boehringer Mannheim) were added into wells and incubated for 1 hr at 37° C. Unbound Anti-digoxigenin peroxidase Fab fragments were removed by 5 washes (300 μl) with PBS containing 0.1% Tween 20. Bound DNA was then incubated with 200 μl of 3,3′-5,5′-tetramethylbenzidine (TMB) solution (Boehringer Mannheim) until sufficient blue product accumulated. The reaction was terminated by adding 100 μl of 1 M sulfuric acid. The resulting yellow color was quantitated at 450 nm.

## CC[C@@]1(O)C(=O)OCc2c1cc1n(c2=O)Cc2cc3ccccc3nc2-1 [Camptothecin]
MCV-TOP; FIG. 5A
  activity against MCV-TOP: not active
EU-TOPO
  dependence of EU-TOPO inhibition on the base 3′ of the scissile phosphate: more efficient when the 3′ base was G

## (−)-epigallocatechin 3-O-gallate [EGCG]
MCV-TOP; in the concentration range of the EU-TOPO IC50s (nanomolar)
  effect on MCV-TOP: no effect
EU-TOPO; EU TA+P substrate (A/T base pair 3′ of the point of cleavage)
  IC50: 0.5 µM
EU-TOPO
  dependence of EU-TOPO inhibition on the base 3′ of the scissile phosphate: far more inhibitory on the DNA substrate containing a G/C base pair 3′ of the point of cleavage
EU-TOPO; EU TG+P substrate (G/C base pair 3′ of the point of cleavage)
  IC50: 0.026 µM

## Coumermycin A1
MCV-TOP; inhibitor added after covalent complex formation, FIG. 5A
  inhibition of MCV-TOP, religation step: not religation
MCV-TOP; inhibitor added to enzyme before DNA substrate, FIG. 5A
  inhibition of MCV-TOP, complete reaction: inhibit the complete reaction
EU-TOPO
  dependence of EU-TOPO inhibition on the base 3′ of the scissile phosphate: not sensitive
EU-TOPO; FIGS. 5B and 5C
  inhibition of EU-TOPO: inhibited
EU-TOPO; two orders of addition
  inhibition of EU-TOPO, complete reaction compared with religation: comparable
